Consider 5 compounds from publication PMC4844700, “Rifampin phosphotransferase is an unusual antibiotic resistance kinase” (Nature Communications, 2016).

The target in data set [1] is T1, RPH-Lm (rifampin phosphotransferase) (Listeria monocytogenes, UniProt A0A0X1KHF9).
T1 construct: full-length from E. coli; crystals and SAXS: His6-tag removed by TEV (pMCSG53 for crystals); kinetics: pET19Tb:rph-Lm; monomer; ATP-grasp 1-314, RIF-BD 327-754, swivel 767-865, catalytic His825
The data set can be described thus: SAXS, ensemble optimization. It counts as binding. To be noted: Mg2+; 20 mM Hepes pH 7.5, 100 mM KCl; 10 °C; 10-fold molar excess; non-hydrolysable ATP analogue.

The target in data set [2] is T1, RPH-Lm (rifampin phosphotransferase). The data set can be described thus: X-ray crystallography. Conditions: crystallized with 5 mM RIF and 5 mM ATP; RIF-binding domain; 2.85 Å.
For data set [3] the target is unchanged. Briefly: X-ray crystallography (SAD). To be noted: Se-Met protein; 5 mM RIF; pH 6; RIF-binding domain; 2.70 Å.
Data set [4] relates to CO[C@H]1/C=C/O[C@@]2(C)Oc3c(C)c(O)c4c(O)c(c(/C=N/N5CCN(C)CC5)c(O)c4c3C2=O)NC(=O)/C(C)=C\C=C\[C@H](C)[C@H](O)[C@@H](C)[C@@H](O)[C@@H](C)[C@H](OC(C)=O)[C@@H]1C. Briefly: purified protein. To be noted: ATP at five times its Km, 50 mM Hepes pH 7.5, 5 mM MgCl2, 40 mM NH4Cl, 25 °C, 11.3 μM enzyme.

As a reminder, the Km is the concentration of substrate that gives half-maximal velocity. Usually kcat stands for the number of substrate molecules converted per active site and unit of time at saturation. A word on the kcat/Km: it is the turnover number divided by the Michaelis constant.

T1 sequence (A0A0X1KHF9 whole entry): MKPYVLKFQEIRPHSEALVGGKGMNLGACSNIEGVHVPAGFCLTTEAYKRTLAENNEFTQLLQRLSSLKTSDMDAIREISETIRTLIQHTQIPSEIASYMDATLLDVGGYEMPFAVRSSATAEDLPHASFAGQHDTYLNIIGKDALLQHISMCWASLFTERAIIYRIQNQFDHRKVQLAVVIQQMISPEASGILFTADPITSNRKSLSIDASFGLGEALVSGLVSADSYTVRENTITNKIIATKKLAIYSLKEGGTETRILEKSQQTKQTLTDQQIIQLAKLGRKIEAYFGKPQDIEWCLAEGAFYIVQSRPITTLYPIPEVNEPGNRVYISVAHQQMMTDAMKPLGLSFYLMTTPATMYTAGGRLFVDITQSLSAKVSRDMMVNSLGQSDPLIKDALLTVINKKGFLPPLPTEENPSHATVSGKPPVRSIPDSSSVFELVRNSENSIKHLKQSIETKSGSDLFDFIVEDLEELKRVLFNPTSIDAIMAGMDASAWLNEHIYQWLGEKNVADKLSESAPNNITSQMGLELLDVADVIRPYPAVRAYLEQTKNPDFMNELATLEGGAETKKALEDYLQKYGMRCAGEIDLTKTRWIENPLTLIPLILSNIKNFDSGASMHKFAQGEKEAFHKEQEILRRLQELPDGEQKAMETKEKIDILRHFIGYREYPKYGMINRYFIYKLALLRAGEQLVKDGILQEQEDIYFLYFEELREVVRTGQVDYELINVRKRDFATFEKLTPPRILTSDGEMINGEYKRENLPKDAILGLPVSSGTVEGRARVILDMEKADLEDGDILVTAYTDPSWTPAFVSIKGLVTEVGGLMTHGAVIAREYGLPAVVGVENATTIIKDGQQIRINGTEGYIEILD

Consider `Nc1ncnc2c1ncn2[C@@H]1O[C@H](COP(=O)(O)OP(=O)(O)NP(=O)(O)O)[C@@H](O)[C@H]1O` [AMP-PnP], for which the “SAXS, ensemble optimization” value in data set [1] is given as “RPH-Lm bound to either analogue showed an increase in the ATP-grasp engaged population”.

For the compound `Nc1ncnc2c1ncn2[C@@H]1O[C@H](COP(=O)(O)CP(=O)(O)OP(=O)(O)O)[C@@H](O)[C@H]1O` [AMP-cPP], in data set [1], the “SAXS, ensemble optimization” value is “RPH-Lm bound to either analogue showed an increase in the ATP-grasp engaged population”.

In the case of `CO[C@H]1/C=C/O[C@@]2(C)Oc3c(C)c(O)c4c(O)c(c(/C=N/N5CCN(C)CC5)c(O)c4c3C2=O)NC(=O)/C(C)=C\C=C\[C@H](C)[C@H](OP(=O)(O)O)[C@@H](C)[C@@H](O)[C@@H](C)[C@H](OC(C)=O)[C@@H]1C` [RIF-P], the X-ray crystallography in data set [2] is given as 5FBU (RPH-Lm·RIF-P).

Consider `CO[C@H]1/C=C/O[C@@]2(C)Oc3c(C)c(O)c4c(O)c(c(/C=N/N5CCN(C)CC5)c(O)c4c3C2=O)NC(=O)/C(C)=C\C=C\[C@H](C)[C@H](O)[C@@H](C)[C@@H](O)[C@@H](C)[C@H](OC(C)=O)[C@@H]1C` [RIF], for which, in data set [3], the “X-ray crystallography (SAD)” value is recorded as 5FBT (RPH-Lm·RIF).

As for “RPH-Lm (rifampin phosphotransferase) (Listeria monocytogenes serotype 4b str. F2365)”, in data set [4], the Km was 0.57 ± 0.15 µM, the kcat amounted to 2.25 ± 0.17 s⁻¹ and the kcat/Km was found to be 3.94e+06 M⁻¹ s⁻¹.
